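48-hour exposure; five concentrations; linearly interpolated endpoints. TGI: concentration producing complete growth inhibition.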
Legend:
Assay in all cases: inhibition of tumour cell growth, NCI panel, 48 h
PC-3 prostate = tested on: PC-3 prostate
MDA-N = tested on: MDA-N
HOP-92 NSCLC = tested on: HOP-92 NSCLC
MDA-MB-435 = tested on: MDA-MB-435
T-47D breast = tested on: T-47D breast
SK-OV-3 ovarian = tested on: SK-OV-3 ovarian
SF-539 CNS = tested on: SF-539 CNS
OVCAR-5 ovarian = tested on: OVCAR-5 ovarian
MDA-MB-231 breast = tested on: MDA-MB-231 breast
SF-295 CNS = tested on: SF-295 CNS
SK-MEL-28 melanoma = tested on: SK-MEL-28 melanoma
SR leukemia = tested on: SR leukemia
A498 renal = tested on: A498 renal
COLO 205 colon = tested on: COLO 205 colon
NCI-H23 lung = tested on: NCI-H23 lung
CCRF-CEM leukemia = tested on: CCRF-CEM leukemia
U251 CNS = tested on: U251 CNS
BT-549 breast = tested on: BT-549 breast
TK-10 renal = tested on: TK-10 renal
DU-145 prostate = tested on: DU-145 prostate
OVCAR-4 ovarian = tested on: OVCAR-4 ovarian
MOLT-4 leukemia = tested on: MOLT-4 leukemia
HCC-2998 colon = tested on: HCC-2998 colon
EKVX NSCLC = tested on: EKVX NSCLC
LOX IMVI melanoma = tested on: LOX IMVI melanoma
NCI/ADR-RES ovarian = tested on: NCI/ADR-RES ovarian
OVCAR-8 ovarian = tested on: OVCAR-8 ovarian
CAKI-1 renal = tested on: CAKI-1 renal
HT29 colon = tested on: HT29 colon
SW-620 colon = tested on: SW-620 colon
OVCAR-3 ovarian = tested on: OVCAR-3 ovarian
KM12 colon = tested on: KM12 colon
MALME-3M melanoma = tested on: MALME-3M melanoma
786-0 renal = tested on: 786-0 renal
HOP-62 NSCLC = tested on: HOP-62 NSCLC
HS 578T breast = tested on: HS 578T breast
SNB-75 CNS = tested on: SNB-75 CNS
NCI-H226 lung = tested on: NCI-H226 lung
HL-60(TB) leukemia = tested on: HL-60(TB) leukemia
K-562 leukemia = tested on: K-562 leukemia
UACC-257 melanoma = tested on: UACC-257 melanoma
RXF 393 renal = tested on: RXF 393 renal
MCF7 breast = tested on: MCF7 breast
SN12C renal = tested on: SN12C renal
HCT-116 colon = tested on: HCT-116 colon
SNB-19 CNS = tested on: SNB-19 CNS
A549 NSCLC = tested on: A549 NSCLC
NCI-H522 lung = tested on: NCI-H522 lung
UACC-62 melanoma = tested on: UACC-62 melanoma
M14 melanoma = tested on: M14 melanoma
ACHN renal = tested on: ACHN renal
SK-MEL-2 melanoma = tested on: SK-MEL-2 melanoma
SF-268 CNS = tested on: SF-268 CNS
UO-31 renal = tested on: UO-31 renal
SK-MEL-5 melanoma = tested on: SK-MEL-5 melanoma
IGROV1 ovarian = tested on: IGROV1 ovarian
HCT-15 colon = tested on: HCT-15 colon
RPMI-8226 leukemia = tested on: RPMI-8226 leukemia
NCI-H460 lung = tested on: NCI-H460 lung

## CC[C@@H]1C(=O)OC[C@@H]1Cc1cncn1C
PC-3 prostate
  TGI: > 100 µM
MDA-N
  TGI: > 100 µM
HOP-92 NSCLC
  TGI: > 100 µM
MDA-MB-435
  TGI: > 100 µM
T-47D breast
  TGI: > 100 µM
SK-OV-3 ovarian
  TGI: > 100 µM
SF-539 CNS
  TGI: > 100 µM
OVCAR-5 ovarian
  TGI: > 100 µM
MDA-MB-231 breast
  TGI: > 100 µM
SF-295 CNS
  TGI: > 100 µM
SK-MEL-28 melanoma
  TGI: > 100 µM
SR leukemia
  TGI: > 100 µM
A498 renal
  TGI: > 100 µM
COLO 205 colon
  TGI: > 100 µM
NCI-H23 lung
  TGI: > 100 µM
CCRF-CEM leukemia
  TGI: > 100 µM
U251 CNS
  TGI: > 100 µM
BT-549 breast
  TGI: > 100 µM
TK-10 renal
  TGI: > 100 µM
DU-145 prostate
  TGI: > 100 µM
OVCAR-4 ovarian
  TGI: > 100 µM
MOLT-4 leukemia
  TGI: > 100 µM
HCC-2998 colon
  TGI: > 100 µM
EKVX NSCLC
  TGI: > 100 µM
LOX IMVI melanoma
  TGI: > 100 µM
NCI/ADR-RES ovarian
  TGI: > 100 µM
OVCAR-8 ovarian
  TGI: > 100 µM
CAKI-1 renal
  TGI: > 100 µM
HT29 colon
  TGI: > 100 µM
SW-620 colon
  TGI: > 100 µM
OVCAR-3 ovarian
  TGI: > 100 µM
KM12 colon
  TGI: > 100 µM
MALME-3M melanoma
  TGI: > 100 µM
786-0 renal
  TGI: > 100 µM
HOP-62 NSCLC
  TGI: > 100 µM
HS 578T breast
  TGI: > 100 µM
SNB-75 CNS
  TGI: > 100 µM
NCI-H226 lung
  TGI: > 100 µM
HL-60(TB) leukemia
  TGI: > 100 µM
K-562 leukemia
  TGI: > 100 µM
UACC-257 melanoma
  TGI: > 100 µM
RXF 393 renal
  TGI: > 100 µM
MCF7 breast
  TGI: > 100 µM
SN12C renal
  TGI: > 100 µM
HCT-116 colon
  TGI: > 100 µM
SNB-19 CNS
  TGI: > 100 µM
A549 NSCLC
  TGI: > 100 µM
NCI-H522 lung
  TGI: > 100 µM
UACC-62 melanoma
  TGI: > 100 µM
M14 melanoma
  TGI: > 100 µM
ACHN renal
  TGI: > 100 µM
SK-MEL-2 melanoma
  TGI: > 100 µM
SF-268 CNS
  TGI: > 100 µM
UO-31 renal
  TGI: > 100 µM
SK-MEL-5 melanoma
  TGI: > 100 µM
IGROV1 ovarian
  TGI: > 100 µM
HCT-15 colon
  TGI: > 100 µM
RPMI-8226 leukemia
  TGI: > 100 µM
NCI-H460 lung
  TGI: > 100 µM

## N#CC1C(=O)SC2c3ccccc3C(=O)c3ccccc3C12 (configuration not stated)
PC-3 prostate
  TGI: > 10 µM
MDA-N
  TGI: > 10 µM
MDA-MB-435
  TGI: > 10 µM
T-47D breast
  TGI: > 10 µM
SK-OV-3 ovarian
  TGI: > 10 µM
SF-539 CNS
  TGI: > 10 µM
OVCAR-5 ovarian
  TGI: > 10 µM
MDA-MB-231 breast
  TGI: > 10 µM
SF-295 CNS
  TGI: > 10 µM
SK-MEL-28 melanoma
  TGI: > 10 µM
SR leukemia
  TGI: > 10 µM
A498 renal
  TGI: > 10 µM
COLO 205 colon
  TGI: > 10 µM
NCI-H23 lung
  TGI: > 10 µM
CCRF-CEM leukemia
  TGI: > 10 µM
U251 CNS
  TGI: > 10 µM
BT-549 breast
  TGI: > 10 µM
TK-10 renal
  TGI: > 10 µM
DU-145 prostate
  TGI: > 10 µM
OVCAR-4 ovarian
  TGI: > 10 µM
MOLT-4 leukemia
  TGI: > 10 µM
HCC-2998 colon
  TGI: > 10 µM
EKVX NSCLC
  TGI: > 10 µM
LOX IMVI melanoma
  TGI: > 10 µM
NCI/ADR-RES ovarian
  TGI: > 10 µM
OVCAR-8 ovarian
  TGI: > 10 µM
CAKI-1 renal
  TGI: > 10 µM
HT29 colon
  TGI: > 10 µM
SW-620 colon
  TGI: > 10 µM
OVCAR-3 ovarian
  TGI: > 10 µM
KM12 colon
  TGI: > 10 µM
MALME-3M melanoma
  TGI: > 10 µM
786-0 renal
  TGI: > 10 µM
HOP-62 NSCLC
  TGI: > 10 µM
HS 578T breast
  TGI: > 10 µM
SNB-75 CNS
  TGI: > 10 µM
NCI-H226 lung
  TGI: > 10 µM
HL-60(TB) leukemia
  TGI: > 10 µM
K-562 leukemia
  TGI: > 10 µM
UACC-257 melanoma
  TGI: > 10 µM
RXF 393 renal
  TGI: > 10 µM
MCF7 breast
  TGI: > 10 µM
SN12C renal
  TGI: > 10 µM
HCT-116 colon
  TGI: > 10 µM
SNB-19 CNS
  TGI: > 10 µM
A549 NSCLC
  TGI: > 10 µM
UACC-62 melanoma
  TGI: > 10 µM
M14 melanoma
  TGI: > 10 µM
ACHN renal
  TGI: > 10 µM
SK-MEL-2 melanoma
  TGI: > 10 µM
SF-268 CNS
  TGI: > 10 µM
UO-31 renal
  TGI: > 10 µM
SK-MEL-5 melanoma
  TGI: > 10 µM
IGROV1 ovarian
  TGI: > 10 µM
HCT-15 colon
  TGI: > 10 µM
RPMI-8226 leukemia
  TGI: > 10 µM
NCI-H460 lung
  TGI: > 10 µM

## O=C1O/C(=C\c2ccccc2)N(c2ccccc2)C1=O
PC-3 prostate
  TGI: > 100 µM
MDA-N
  TGI: > 100 µM
HOP-92 NSCLC
  TGI: > 100 µM
MDA-MB-435
  TGI: > 100 µM
T-47D breast
  TGI: > 100 µM
SK-OV-3 ovarian
  TGI: > 100 µM
OVCAR-5 ovarian
  TGI: > 100 µM
MDA-MB-231 breast
  TGI: > 100 µM
SK-MEL-28 melanoma
  TGI: > 100 µM
SR leukemia
  TGI: > 100 µM
A498 renal
  TGI: > 100 µM
COLO 205 colon
  TGI: > 100 µM
NCI-H23 lung
  TGI: > 100 µM
CCRF-CEM leukemia
  TGI: > 100 µM
U251 CNS
  TGI: > 100 µM
BT-549 breast
  TGI: > 100 µM
TK-10 renal
  TGI: > 100 µM
DU-145 prostate
  TGI: > 100 µM
OVCAR-4 ovarian
  TGI: > 100 µM
MOLT-4 leukemia
  TGI: > 100 µM
HCC-2998 colon
  TGI: > 100 µM
EKVX NSCLC
  TGI: > 100 µM
LOX IMVI melanoma
  TGI: > 100 µM
NCI/ADR-RES ovarian
  TGI: > 100 µM
OVCAR-8 ovarian
  TGI: > 100 µM
CAKI-1 renal
  TGI: > 100 µM
HT29 colon
  TGI: > 100 µM
SW-620 colon
  TGI: > 100 µM
OVCAR-3 ovarian
  TGI: > 100 µM
KM12 colon
  TGI: > 100 µM
786-0 renal
  TGI: > 100 µM
HOP-62 NSCLC
  TGI: > 100 µM
HS 578T breast
  TGI: > 100 µM
SNB-75 CNS
  TGI: > 100 µM
NCI-H226 lung
  TGI: > 100 µM
HL-60(TB) leukemia
  TGI: > 100 µM
K-562 leukemia
  TGI: > 100 µM
UACC-257 melanoma
  TGI: > 100 µM
RXF 393 renal
  TGI: > 100 µM
MCF7 breast
  TGI: > 100 µM
SN12C renal
  TGI: > 100 µM
HCT-116 colon
  TGI: > 100 µM
SNB-19 CNS
  TGI: > 100 µM
A549 NSCLC
  TGI: > 100 µM
NCI-H522 lung
  TGI: > 100 µM
UACC-62 melanoma
  TGI: > 100 µM
M14 melanoma
  TGI: > 100 µM
ACHN renal
  TGI: > 100 µM
SK-MEL-2 melanoma
  TGI: > 100 µM
SF-268 CNS
  TGI: > 100 µM
UO-31 renal
  TGI: > 100 µM
SK-MEL-5 melanoma
  TGI: > 100 µM
IGROV1 ovarian
  TGI: > 100 µM
HCT-15 colon
  TGI: > 100 µM
RPMI-8226 leukemia
  TGI: > 100 µM
NCI-H460 lung
  TGI: > 100 µM

— PubChem BioAssay (NCI)
